From PMC10938758, “A phenotypic screen of the Global Health Priority Box identifies an insecticide with anthelmintic activity” (Parasites & Vectors, 2024)

Experiments:
H. contortus xL3s = experiment: H. contortus dose-response assay, xL3 motility; design: species or system Haemonchus contortus
Experimental: The dose–response assay for H. contortus followed a well-established protocol; it was employed to evaluate the potency of hit compounds against this nematode. Test compounds were assessed individually for an effect on the motility of xL3s (10-point, twofold serial dilution in LB*, 40–0.16 μM). One compound, monepantel (prepared in the same manner as the test compounds), was used as a positive control. A solution of LB* was used as a negative control. The test and positive-control compounds were arrayed in triplicate across individual flat-bottom 96-well microplates, with six wells on each plate containing the negative control. Three hundred xL3s of H. contortus in 50 μl of LB* were added to each well to give a final volume of 100 μl. Plates were then placed in a CO2 incubator (10% [v/v] CO2, 38 °C, > 90% humidity). […] Over a period of 15 min, disturbance of an infrared beam in individual wells was recorded as a worm activity count. Raw activity counts for each well were normalised to the negative controls. The compound concentrations were log10-transformed and fitted using a variable-slope four-parameter equation, using the ordinary least squares fit model, employing GraphPad Prism (v.9.1.0). Larval development was established at 168 h of incubation with compound, as described previously. The development inhibition and phenotypes of larvae were examined microscopically. A one-way analysis of variance (ANOVA) with a Tukey multiple comparison test or an unpaired t-test was used to establish statistically significant differences in larval motility or development.

[1] = Cytotoxicity on HepG2 cells (glucose medium, crystal violet); format: cell-based; conditions: human, D-glucose medium, read-out: half-maximal cytotoxic concentration (CC50)
Experimental: The cytotoxic and mitotoxic activity of MMV1794206 on HepG2 human hepatoma cells was evaluated using an established protocol. The test compounds were serially diluted (seven-point, twofold serial dilution, 40–0.63 µM) in Dulbecco’s modified Eagle medium (DMEM; Thermo Fisher Scientific, USA), with GlutaMax™ supplemented with 25 mM D-glucose (cytotoxicity) or D-galactose (mitotoxicity), 10% heat-inactivated foetal bovine serum (FBS), 100 IU/ml of penicillin, 100 µg/ml of streptomycin and 0.25 µg/ml of amphotericin B (denoted as DMEM*). Monepantel and moxidectin (prepared in the same manner as the test compound) were included as reference compounds. Two compounds, doxorubicin (cytotoxic; Sigma-Aldrich, USA) and M-666 (mitotoxic; [57]), were used as positive controls at a single concentration of 10 µM. A solution of DMEM* + 0.25% (v/v) DMSO was used as a negative control. HepG2 cells were seeded into wells of a 96-well plate in 80 µl of DMEM* (at 1 × 10^5 cells per well) and allowed to adhere for 16 h at 37 °C and 5% (v/v) CO2 at > 90% humidity prior to incubation with individual compounds, at a final volume of 100 µl. […] Following 48 h of incubation with compounds, cell viability was determined by crystal violet staining. The absorbance (595 nm) of treated cells was normalised using the negative controls (viability: 100%) to calculate the cell viability. […]

[2] = tested on: adult females of H. contortus; experiment: Motility of H. contortus adult females (video scoring); design: species or system Haemonchus contortus; conditions: 40 μM
Experimental: The activity of two test compounds was assessed on adult female specimens of H. contortus in an established assay. The compound was added in triplicate to the wells of a 24-well plate (Corning, USA) at a concentration of 40 μM in 500 μl of RPMI*. Two positive-control compounds, monepantel and moxidectin, and a negative control containing 1% (v/v) DMSO only were included in triplicate on the same plate. Three adult females were added to each of the triplicate wells containing either the test compound or the controls and placed in a CO2 incubator (10% [v/v] CO2, 38 °C, > 90% relative humidity) for 24 h. A video recording (30 s) of each well was taken at 3 h, 6 h, 12 h and 24 h during the total incubation period to assess the reduction in worm motility, which was scored as 3 (‘good’), 2 (‘low’), 1 (‘very low’) or 0 (‘no movement’; cf.). For each test or control compound, the motility scores for each of the triplicate wells were calculated, normalised with reference to the negative control (100% motility) and recorded as a percentage. A two-way ANOVA with a Tukey multiple comparison test was used to establish statistically significant differences in worm motility.

## CC(F)c1ncnc(NCCc2ccc(OC(F)(F)F)cc2)c1Cl (stereo not shown) [MMV1794206, flufenerim]
H. contortus xL3s; Haemonchus contortus, 90 h, read-out: IC50, H. contortus larval motility inhibition
  IC50: 18 µM
H. contortus xL3s; xL3s, 90 h of incubation
  Maximum motility inhibition (MMI), H. contortus larvae: 98%
[1]
  CC50 at 48 h: < 0.7 µM
[2]; 3 h
  Reduction of motility of adult females of H. contortus: ~ 33%
[2]; 6 h
  Reduction of motility of adult females of H. contortus: ~89%
[2]; 12 h
  Reduction of motility of adult females of H. contortus: 100%
[2]; 24 h
  Reduction of motility of adult females of H. contortus: ~100%
